Measured values reported in ChEMBL document CHEMBL1201862, “PubChem BioAssay data set” (2004).
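Results reflect a 48-hour exposure of cells in 96-well plates to compound at five concentrations. Here, GI50 denotes the concentration required for 50% inhibition of growth.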 The source made the active and inactive calls. No stated cut-off is given here; in the data, active = GI50 up to about 1.1 µM and inactive = higher.

How the values were obtained:
Assay in all cases: inhibition of tumour cell growth, NCI panel, 48 h
[1] = system: KM-20L2
[2] = system: SK-OV-3
[3] = system: HL-60
[4] = system: NCI-H522
[5] = system: SNB-75
[6] = system: DMS-273
[7] = system: SN12C
[8] = system: SK-MEL-2
[9] = system: HOP-62
[10] = system: HCT-116
[11] = system: EKVX
[12] = system: SF-295
[13] = system: RXF 631
[14] = system: HOP-92
[15] = system: COLO 205
[16] = system: SNB-78
[17] = system: NCI-H226
[18] = system: SNB-19
[19] = system: OVCAR-4
[20] = system: KM12
[21] = system: M14
[22] = system: UACC-62
[23] = system: SR
[24] = system: MOLT-4
[25] = system: Malme-3M
[26] = system: 786-0
[27] = system: M19-MEL
[28] = system: A549
[29] = system: ACHN
[30] = system: HOP-18
[31] = system: CAKI-1
[32] = system: XF498
[33] = system: UACC-257
[34] = system: HT-29
[35] = system: DLD-1
[36] = system: SW-620
[37] = system: OVCAR-5
[38] = system: CCRF-CEM
[39] = system: OVCAR-8
[40] = system: SK-MEL-5
[41] = system: SK-MEL-28
[42] = system: RPMI-8226
[43] = system: HCC 2998
[44] = system: TK-10
[45] = system: K562
[46] = system: UO-31
[47] = system: SF-539
[48] = system: NCI-H23
[49] = system: OVCAR-3
[50] = system: DMS-114
[51] = system: RXF 393
[52] = system: U-251
[53] = system: LOX IMVI
[54] = system: IGROV-1
[55] = system: NCI-H460
[56] = system: SF-268
[57] = system: LXFL 529
[58] = system: HCT-15

COc1ccccc1NC(=O)CC(=O)n1nc(-c2ccccc2)c(/N=N/c2ccccc2[N+](=O)[O-])c1-c1ccccc1
GI50 [1]: > 100 µM (inactive)
GI50 [2]: > 100 µM (inactive)
GI50 [3]: > 100 µM (inactive)
GI50 [4]: > 100 µM (inactive)
GI50 [5]: 17.8 µM (inactive)
GI50 [6]: > 100 µM (inactive)
GI50 [7]: > 100 µM (inactive)
GI50 [8]: > 100 µM (inactive)
GI50 [9]: > 100 µM (inactive)
GI50 [10]: 71.6 µM (inactive)
GI50 [11]: 44.5 µM (inactive)
GI50 [12]: > 100 µM (inactive)
GI50 [13]: > 100 µM (inactive)
GI50 [14]: 81.7 µM (inactive)
GI50 [15]: 95.5 µM (inactive)
GI50 [16]: > 100 µM (inactive)
GI50 [17]: 0.612 µM (active)
GI50 [18]: > 100 µM (inactive)
GI50 [19]: > 100 µM (inactive)
GI50 [20]: 36.1 µM (inactive)
GI50 [21]: > 100 µM (inactive)
GI50 [22]: > 100 µM (inactive)
GI50 [23]: > 100 µM (inactive)
GI50 [24]: 64.7 µM (inactive)
GI50 [25]: > 100 µM (inactive)
GI50 [26]: > 100 µM (inactive)
GI50 [27]: 51.2 µM (inactive)
GI50 [28]: > 100 µM (inactive)
GI50 [29]: 32.2 µM (inactive)
GI50 [30]: > 100 µM (inactive)
GI50 [31]: > 100 µM (inactive)
GI50 [32]: > 100 µM (inactive)
GI50 [33]: > 100 µM (inactive)
GI50 [34]: 25.2 µM (inactive)
GI50 [35]: 42.3 µM (inactive)
GI50 [36]: > 100 µM (inactive)
GI50 [37]: 64.1 µM (inactive)
GI50 [38]: > 100 µM (inactive)
GI50 [39]: > 100 µM (inactive)
GI50 [40]: 94.4 µM (inactive)
GI50 [41]: 30 µM (inactive)
GI50 [42]: 74.5 µM (inactive)
GI50 [43]: 70 µM (inactive)
GI50 [44]: > 100 µM (inactive)
GI50 [45]: 80.7 µM (inactive)
GI50 [46]: 38.4 µM (inactive)
GI50 [47]: > 100 µM (inactive)
GI50 [48]: 98.4 µM (inactive)
GI50 [49]: 69 µM (inactive)
GI50 [50]: 25.6 µM (inactive)
GI50 [51]: 44.7 µM (inactive)
GI50 [52]: 56.5 µM (inactive)
GI50 [53]: > 100 µM (inactive)
GI50 [54]: > 100 µM (inactive)
GI50 [55]: > 100 µM (inactive)
GI50 [56]: 95.3 µM (inactive)
GI50 [57]: 83.2 µM (inactive)

COc1ccc(C2NCCc3c2[nH]c2ccccc32)cc1 (configuration not stated)
GI50 [1]: > 100 µM (inactive)
GI50 [2]: > 100 µM (inactive)
GI50 [3]: > 100 µM (inactive)
GI50 [4]: > 100 µM (inactive)
GI50 [5]: 30.5 µM (inactive)
GI50 [7]: > 100 µM (inactive)
GI50 [9]: 21.2 µM (inactive)
GI50 [10]: 51.5 µM (inactive)
GI50 [11]: > 100 µM (inactive)
GI50 [12]: > 100 µM (inactive)
GI50 [13]: 67 µM (inactive)
GI50 [14]: > 100 µM (inactive)
GI50 [15]: 32.2 µM (inactive)
GI50 [17]: > 100 µM (inactive)
GI50 [18]: > 100 µM (inactive)
GI50 [20]: > 100 µM (inactive)
GI50 [21]: 23.2 µM (inactive)
GI50 [22]: > 100 µM (inactive)
GI50 [23]: 28.2 µM (inactive)
GI50 [24]: > 100 µM (inactive)
GI50 [25]: 27 µM (inactive)
GI50 [26]: 83.8 µM (inactive)
GI50 [27]: > 100 µM (inactive)
GI50 [28]: 48.2 µM (inactive)
GI50 [29]: > 100 µM (inactive)
GI50 [30]: 58.7 µM (inactive)
GI50 [58]: > 100 µM
GI50 [32]: 28.1 µM (inactive)
GI50 [33]: 45.6 µM (inactive)
GI50 [34]: > 100 µM (inactive)
GI50 [35]: > 100 µM (inactive)
GI50 [36]: > 100 µM (inactive)
GI50 [37]: > 100 µM (inactive)
GI50 [38]: 77.6 µM (inactive)
GI50 [39]: > 100 µM (inactive)
GI50 [40]: 22.5 µM (inactive)
GI50 [41]: 5.22 µM (inactive)
GI50 [42]: > 100 µM (inactive)
GI50 [43]: 24.7 µM (inactive)
GI50 [44]: > 100 µM (inactive)
GI50 [45]: 60.8 µM (inactive)
GI50 [46]: 42.3 µM (inactive)
GI50 [47]: > 100 µM (inactive)
GI50 [48]: > 100 µM (inactive)
GI50 [49]: > 100 µM (inactive)
GI50 [51]: 67.1 µM (inactive)
GI50 [52]: > 100 µM (inactive)
GI50 [53]: > 100 µM (inactive)
GI50 [54]: > 100 µM (inactive)
GI50 [55]: 88.9 µM (inactive)
GI50 [56]: > 100 µM (inactive)
GI50 [57]: 95.3 µM (inactive)

NC(=O)NC(=O)C1CCC(=O)N1S(=O)(=O)c1ccc(Cl)cc1 (configuration not stated)
GI50 [1]: > 100 µM (inactive)
GI50 [2]: > 100 µM (inactive)
GI50 [3]: > 100 µM (inactive)
GI50 [4]: 63 µM (inactive)
GI50 [5]: > 100 µM (inactive)
GI50 [7]: > 100 µM (inactive)
GI50 [8]: > 100 µM (inactive)
GI50 [9]: > 100 µM (inactive)
GI50 [10]: > 100 µM (inactive)
GI50 [11]: > 100 µM (inactive)
GI50 [12]: > 100 µM (inactive)
GI50 [13]: > 100 µM (inactive)
GI50 [14]: > 100 µM (inactive)
GI50 [15]: > 100 µM (inactive)
GI50 [17]: > 100 µM (inactive)
GI50 [18]: > 100 µM (inactive)
GI50 [19]: > 100 µM (inactive)
GI50 [20]: > 100 µM (inactive)
GI50 [21]: > 100 µM (inactive)
GI50 [22]: > 100 µM (inactive)
GI50 [23]: > 100 µM (inactive)
GI50 [24]: > 100 µM (inactive)
GI50 [25]: > 100 µM (inactive)
GI50 [26]: > 100 µM (inactive)
GI50 [27]: > 100 µM (inactive)
GI50 [28]: > 100 µM (inactive)
GI50 [29]: > 100 µM (inactive)
GI50 [30]: > 100 µM (inactive)
GI50 [31]: > 100 µM (inactive)
GI50 [58]: > 100 µM
GI50 [32]: > 100 µM (inactive)
GI50 [33]: > 100 µM (inactive)
GI50 [34]: > 100 µM (inactive)
GI50 [35]: > 100 µM (inactive)
GI50 [36]: > 100 µM (inactive)
GI50 [38]: 77.4 µM (inactive)
GI50 [39]: > 100 µM (inactive)
GI50 [40]: > 100 µM (inactive)
GI50 [41]: > 100 µM (inactive)
GI50 [42]: > 100 µM (inactive)
GI50 [44]: > 100 µM (inactive)
GI50 [45]: > 100 µM (inactive)
GI50 [46]: > 100 µM (inactive)
GI50 [47]: > 100 µM (inactive)
GI50 [48]: > 100 µM (inactive)
GI50 [49]: > 100 µM (inactive)
GI50 [50]: > 100 µM (inactive)
GI50 [51]: > 100 µM (inactive)
GI50 [52]: > 100 µM (inactive)
GI50 [54]: > 100 µM (inactive)
GI50 [55]: > 100 µM (inactive)
GI50 [56]: > 100 µM (inactive)
GI50 [57]: > 100 µM (inactive)
